Assay results published in PubChem BioAssay AID1845202 (Molecular Pharmacology Branch, DTP, NCI, 2023).
pIC50: −log10 of the molar value.

Tested on: DMS 114 tumor spheroids, viability % test/control
Experiment: Anticancer human tumor DMS 114 cell line growth inhibition;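 also: spheroids exposed to compounds for 7 days before read-out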;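 as to viability, T/C: luminescence used as a proxy for viable cells; 100% = DMSO vehicle control viability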
Details: spheroids with HUVEC and MSC; for pIC50: curve of first compound; for viability, T/C: stronger effect = lower value
Procedure, shortened: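 Complex tumor spheroids combined malignant cells with endothelial cells and mesenchymal stem cells. DNA-damaging drugs and DNA repair inhibitors were tested alone and in combination, at half-log dilutions down from clinical Cmax (top 10 microM if Cmax unknown), 0.25% DMSO final.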

[1] = second compound 0.003 µM, first compound 0.0316 µM
[2] = second compound 0.003 µM, first compound 0.1 µM
[3] = second compound 0.003 µM, first compound 0.316 µM
[4] = second compound 0.003 µM, first compound 1 µM
[5] = second compound 0.003 µM, first compound 3.16 µM
[6] = second compound 0.003 µM, first compound 10 µM
[7] = second compound 0.00949 µM, first compound 0.0316 µM
[8] = second compound 0.00949 µM, first compound 0.1 µM
[9] = second compound 0.00949 µM, first compound 0.316 µM
[10] = second compound 0.00949 µM, first compound 1 µM
[11] = second compound 0.00949 µM, first compound 3.16 µM
[12] = second compound 0.00949 µM, first compound 10 µM
[13] = second compound 0.03 µM, first compound 0.0316 µM
[14] = second compound 0.03 µM, first compound 0.1 µM
[15] = second compound 0.03 µM, first compound 0.316 µM
[16] = second compound 0.03 µM, first compound 1 µM
[17] = second compound 0.03 µM, first compound 3.16 µM
[18] = second compound 0.03 µM, first compound 10 µM
[19] = second compound 0.0949 µM, first compound 0.0316 µM
[20] = second compound 0.0949 µM, first compound 0.1 µM
[21] = second compound 0.0949 µM, first compound 0.316 µM
[22] = second compound 0.0949 µM, first compound 1 µM
[23] = second compound 0.0949 µM, first compound 3.16 µM
[24] = second compound 0.0949 µM, first compound 10 µM
[25] = second compound 0.3 µM, first compound 0.0316 µM
[26] = second compound 0.3 µM, first compound 0.1 µM
[27] = second compound 0.3 µM, first compound 0.316 µM
[28] = second compound 0.3 µM, first compound 1 µM
[29] = second compound 0.3 µM, first compound 3.16 µM
[30] = second compound 0.3 µM, first compound 10 µM

Compound | pIC50 (second compound 0.003 µM) | pIC50 (second compound 0.00949 µM) | pIC50 (second compound 0.03 µM) | pIC50 (second compound 0.0949 µM) | pIC50 (second compound 0.3 µM) | viability, T/C [1] [%] | viability, T/C [2] [%] | viability, T/C [3] [%] | viability, T/C [4] [%] | viability, T/C [5] [%] | viability, T/C [6] [%] | viability, T/C [7] [%] | viability, T/C [8] [%] | viability, T/C [9] [%] | viability, T/C [10] [%] | viability, T/C [11] [%] | viability, T/C [12] [%] | viability, T/C [13] [%] | viability, T/C [14] [%] | viability, T/C [15] [%] | other results
CC1COCCN1c1cc(-c2ccnn2C)c2ccnc(-c3ccn[nH]3)c2n1 (stereo not given) + CC[C@@]1(O)C(=O)OCc2c1cc1n(c2=O)Cc2cc3c(CN(C)C)c(O)ccc3nc2-1 | > 7.50 | > 7.50 | > 7.50 | > 7.50 | > 7.50 | 24.7 | 20.3 | 15.8 | 11.9 | 8.38 | 8.31 | 16.8 | 16.3 | 15.2 | 10.5 | 7.71 | 8.35 | 13.2 | 13 | 11.1 | viability, T/C [16]: 8.42%; viability, T/C [17]: 7.3%; viability, T/C [18]: 7.49%; viability, T/C [19]: 8.52%; viability, T/C [20]: 8.81%; viability, T/C [21]: 8.07%; viability, T/C [22]: 7.09%; viability, T/C [23]: 6.17%; viability, T/C [24]: 7.21%; viability, T/C [25]: 6.92%; viability, T/C [26]: 7.23%; viability, T/C [27]: 6.75%; viability, T/C [28]: 6.68%; viability, T/C [29]: 6.95%; viability, T/C [30]: 7.43%
[2H]c1nc(C)nc([2H])c1-c1cc(NC[C@@H](C)c2cccc3c(C(=O)NC)ccnc23)ncn1 + CC[C@@]1(O)C(=O)OCc2c1cc1n(c2=O)Cc2cc3c(CN(C)C)c(O)ccc3nc2-1 | < 5.00 | < 5.00 | > 7.50 | > 7.50 | > 7.50 | 114 | 113 | 112 | 121 | 105 | 88.5 | 93 | 96.2 | 92.4 | 79 | 68.3 | 58.9 | 35.3 | 35 | 32.8 | viability, T/C [16]: 27.7%; viability, T/C [17]: 24%; viability, T/C [18]: 18.9%; viability, T/C [19]: 17%; viability, T/C [20]: 16.7%; viability, T/C [21]: 17.1%; viability, T/C [22]: 16.9%; viability, T/C [23]: 13.7%; viability, T/C [24]: 13.7%; viability, T/C [25]: 11%; viability, T/C [26]: 11%; viability, T/C [27]: 11.4%; viability, T/C [28]: 9.27%; viability, T/C [29]: 12.8%; viability, T/C [30]: 12.3%
